Patent US6544727B1, “Methods and devices for the removal of psoralens from blood products” (Cerus Corporation, priority 1995, dated 2003)
Read-outs that look alike come from different tables or passages of the source.

Assays:
[1] = tested on: R17 bacteriophage; test: R17 bacteriophage inactivation assay, varying compound concentration; format: cell-based; conditions: for R17 inactivation efficiency compared with AMT or 8-MOP (in words): varying concentration, Tables 6-9, FIGS. 6-10
How it was run: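 R17 phage (10^9/mL in DMEM with 15% FBS) mixed with compound at 4–320 μM and irradiated 1–10 min. Surviving phage titred by serial dilution and plaque assay on Hfr 3000 bacteria after overnight incubation at 37 °C; controls were untreated phage, UV without compound, and compound without irradiation.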

[2] = tested on: mouse reticulocytes; conditions: for PCE/RBC (%): tail vein, once per day for four days, blood on day 5; for bone marrow toxicity and micronucleus formation on dose escalation (in words): increased dose levels in male Balb/c mice
Protocol: Male Balb/c mice were then injected with 0.1 ml of a compound solution via the tail vein. At least 3 mice were injected per dose level. Saline only was used as a negative control. For a positive control, cyclophosphamide (cycloPP) was administered at a dose of 30 mg/kg. In the experimental group, the injections were repeated once per day for four days. In the positive control group, the sample was administered only once, on day three. On day 5, several microliters of blood were withdrawn from each subject and smeared on a glass slide. Cells were fixed in absolute methanol and stored in a slide rack.
For analysis, cells were stained with acridine orange and visualized under a fluorescence microscope by counting: (i) the number of reticulocytes per 5000 erythrocytes; and (ii) the number of micronucleated reticulocytes per 1000 reticulocytes. Reticulocytes were distinguished by their red fluorescence due to the presence of RNA. Micronuclei were distinguished by their green fluorescence due to the presence of DNA. The percentage of reticulocytes (%PCE) was then calculated. A decrease in the frequency of […] in the percentage of reticulocytes, is an indication of bone marrow toxicity. The percentage of reticulocytes with micronuclei (%PCE with MN) was also calculated. An increase in %PCE with MN is a measure of clastogenicity.
After initial results were determined, the experiment was repeated using increased dose levels, until: (i) Micronucleus formation was seen; or (ii) Bone marrow toxicity was observed; or (iii) The lethal dose was reached; or (iv) A dose of 5 g/kg was administered.

[3] = tested on: HIV-1; conditions: for HIV Log Kill: 1 minute irradiation
Protocol: As in the R17 assay, small aliquots of the compounds listed in TABLES 10 and 11, below, at the concentrations listed in the table, were added to stock HIV-1 to a total of 0.5 mL. The stock HIV (10^5−10^7 plaque forming units/mL) was in DMEM15% FBS. […] Controls included HIV-1 stock only, HIV-1 plus UVA only, and HIV-1 plus the highest concentration of each psoralen tested, with no UVA. Post irradiation, all samples were store frozen at −70° C. until assayed for infectivity by a microtiter plaque assay. Aliquots for measurement of residual HIV infectivity in the samples treated with a compound of the present invention were withdrawn and cultured.
Residual HIV infectivity was assayed using an MT-2 infectivity assay. […] The assay medium was 85% DMEM (with a high glucose concentration) containing 100 μg of streptomycin, 100 U of penicillin, 50 μg of gentamicin, and 1 μg of amphotericin B per mL, 15% FBS and 2 μg of Polybrene (Sigma Chemical Co., St. Louis, Mo.) per mL. Test and control samples from the inactivation procedure were diluted in 50% assay medium and 50% normal human pooled plasma The samples were serially diluted directly in 96-well plates (Corning Glass Works, Corning, N.Y.). The plates were mixed on an oscillatory shaker for 30 seconds and incubated at 37° C. in a 5% CO2 atmosphere for 1 to 18 hours. […] After an additional 1 hour of incubation at 37° C. in 5% CO2, 0.075 mL of assay medium containing 1.6% SeaPlaque agarose (FMC Bioproducts, Rockland, Me.) and prewarmed to 38.5° C. was added to each well. The plates were kept at 37° C. for a few minutes until several plates had accumulated and then centrifuged in plate carriers at 600×g for 20 minutes in a centrifuge precooled to 10° C. In the centrifuge, cell monolayers formed prior to gelling of the agarose layer. The plates were incubated for 5 days at 37° C. in 5% CO2 and stained by the addition of 0.05 mL of 50 μg/mL propidium iodide (Sigma Chemical Co.) in phosphate-buffered saline (pH 7.4) to each well. After 24 to 48 hours, the red fluorescence-stained microplaques were visualized by placing the plates on an 8,000 μW/cm^2304 nm UV light box (Fotodyne, Inc., New Berlin, Wis.). The plaques were counted at a magnification of x20 to x25 through a stereomicroscope.

[4] = 16 μM, starting titer approx. 7.1 logs, 1 minute irradiation (Table 9)
[5] = 16 μM, starting titer approx. 7.1 logs, 1 minute irradiation = 1.2 J/cm^2 (Table 8)
[6] = 32 μM, starting titer approx. 7.1 logs, 1 minute irradiation = 1.2 J/cm^2 (Table 8)
[7] = 16 μM, starting titer approximately 5 logs (Table 10)
[8] = 16 μM, starting titer approximately 5.4 logs (Table 11)
[9] = 32 μM, starting titer approximately 5 logs (Table 10)
[10] = 32 μM, starting titer approximately 5.4 logs (Table 11)
[11] = 64 μM, starting titer approximately 5 logs (Table 10)
[12] = 64 μM, starting titer approximately 5.4 logs (Table 11)
[13] = 8 μM, starting titer approx. 7.2 logs, 1 minute irradiation (Table 7)
[14] = 16 μM, starting titer approx. 7.2 logs, 1 minute irradiation (Table 7)
[15] = 32 μM, starting titer approx. 7.2 logs, 1 minute irradiation (Table 7)

Row | Compound | R17 Log Kill [1, 4] | R17 Log Kill [1, 5] | R17 Log Kill [1, 6] | R17 inactivation efficiency compared with AMT or 8-MOP (in words) [1] | bone marrow toxicity and micronucleus formation on dose escalation (in words) [2] | HIV Log Kill [3, 7] | HIV Log Kill [3, 8] | HIV Log Kill [3, 9] | HIV Log Kill [3, 10] | HIV Log Kill [3, 11] | HIV Log Kill [3, 12] | R17 Log Kill [1, 13] | R17 Log Kill [1, 14] | R17 Log Kill [1, 15] | other results
1 | Cc1oc2c(C)c3oc(=O)cc(C)c3cc2c1CNCCCCN [Compound 6, 4′-(6-amino-2-aza)hexyl-4,5′,8-trimethylpsoralen] | >6 log | >6.1 log | >6.1 log | significantly higher inactivation efficiency than does AMT | the acutely lethal dose was reached before there were any signs of bone marrow toxicity or micronucleus formation | 2.0 log | 2.1 log | 3.1 log | 3.2 log | >3.8 log | >2.8 log | – | – | – | R17 Log Kill ([1]; 8 μM, starting titer approx. 7.1 logs, 1 minute irradiation (Table 9)): >6 log; R17 Log Kill ([1]; 64 μM, starting titer approx. 7.1 logs, 1 minute irradiation = 1.2 J/cm^2 (Table 8)): >6.1 log; PCE/RBC (%) ([2]; 30 mg/kg): 3.61 ± 0.12%; PCE/RBC (%) ([2]; 45 mg/kg): 3.79 ± 0.41%
2 | Cc1oc2c(C)c3oc(=O)cc(C)c3cc2c1CN [AMT, 4′-Aminomethyl-4,5′,8-trimethylpsoralen, reference compound] | >6 log | 4.5 log | 4.8 log | – | – | 1.4 log | – | – | – | – | – | 2.7 log | 4.6 log | >6.2 log | R17 Log Kill ([1]; 32 μM, starting titer approx. 7.1 logs, 1 minute irradiation (Table 9)): >6 log; R17 log kill (32 μM) ([1]; 32 μM, starting titer approx. 7.5 logs, 1 minute irradiation): >6.7 log
3 | Cc1cc(=O)oc2c(C)c3oc(COCCN)c(C)c3cc12 [Compound 18, 5′-(4-amino-2-oxa)butyl-4,4′,8-trimethylpsoralen] | – | – | – | – | the acutely lethal dose was reached before there were any signs of bone marrow toxicity or micronucleus formation | – | 1.0 log | – | 1.0 log | – | 3.1 log | – | – | – | PCE/RBC (%) ([2]; 3.75 mg/kg): 3.61 ± 1.14%; PCE/RBC (%) ([2]; 7.5 mg/kg): 3.59 ± 0.33%; PCE/RBC (%) ([2]; 20 mg/kg): 3.48 ± 0.79%
4 | Cc1oc2c(C)c3oc(=O)cc(C)c3cc2c1COCCN [Compound 2, 4′-(4-amino-2-oxa)butyl-4,5′,8-trimethylpsoralen] | – | – | – | significantly higher inactivation efficiency than does AMT | the acutely lethal dose was reached before there were any signs of bone marrow toxicity or micronucleus formation | 1.4 log | – | 3.8 log | – | >4.5 log | – | 3.8 log | >6.2 log | >6.2 log | HIV inactivation compared with AMT (in words) ([3]; cell-free HIV, 64 μM of compound or higher for compounds 2 and 3): significantly more active than AMT
